Source: publication PMC9386376, “Discovery of spirooxindole-derived small-molecule compounds as novel HDAC/MDM2 dual inhibitors and investigation of their anticancer activity” (Frontiers in Oncology, 2022)

Tests used:
[1] = system: HCT116 cells; experiment: MTT antiproliferative assay, HCT116; details: Homo sapiens, HCT-116, read-out: IC50 HCT116
Protocol: (§1) The cytotoxicity assay was performed with MTT method as previously described ([73], [88], [89]).

[2] = system: MCF-7 cells; experiment: MTT antiproliferative assay, MCF-7; details: Homo sapiens, MCF7, read-out: IC50 MCF-7
Protocol: as §1

[3] = system: A431 cells; experiment: MTT antiproliferative assay, A431; details: Homo sapiens, A-431, read-out: IC50 A431
Protocol: as §1

[4] = molecular target: HDAC5 (Homo sapiens, UniProt Q9UQL6); experiment: HDAC isoform selectivity, HDAC5; assay type: biochemical; details: HDAC subtype panel
Chain of HDAC5 (Q9UQL6 whole entry, canonical isoform): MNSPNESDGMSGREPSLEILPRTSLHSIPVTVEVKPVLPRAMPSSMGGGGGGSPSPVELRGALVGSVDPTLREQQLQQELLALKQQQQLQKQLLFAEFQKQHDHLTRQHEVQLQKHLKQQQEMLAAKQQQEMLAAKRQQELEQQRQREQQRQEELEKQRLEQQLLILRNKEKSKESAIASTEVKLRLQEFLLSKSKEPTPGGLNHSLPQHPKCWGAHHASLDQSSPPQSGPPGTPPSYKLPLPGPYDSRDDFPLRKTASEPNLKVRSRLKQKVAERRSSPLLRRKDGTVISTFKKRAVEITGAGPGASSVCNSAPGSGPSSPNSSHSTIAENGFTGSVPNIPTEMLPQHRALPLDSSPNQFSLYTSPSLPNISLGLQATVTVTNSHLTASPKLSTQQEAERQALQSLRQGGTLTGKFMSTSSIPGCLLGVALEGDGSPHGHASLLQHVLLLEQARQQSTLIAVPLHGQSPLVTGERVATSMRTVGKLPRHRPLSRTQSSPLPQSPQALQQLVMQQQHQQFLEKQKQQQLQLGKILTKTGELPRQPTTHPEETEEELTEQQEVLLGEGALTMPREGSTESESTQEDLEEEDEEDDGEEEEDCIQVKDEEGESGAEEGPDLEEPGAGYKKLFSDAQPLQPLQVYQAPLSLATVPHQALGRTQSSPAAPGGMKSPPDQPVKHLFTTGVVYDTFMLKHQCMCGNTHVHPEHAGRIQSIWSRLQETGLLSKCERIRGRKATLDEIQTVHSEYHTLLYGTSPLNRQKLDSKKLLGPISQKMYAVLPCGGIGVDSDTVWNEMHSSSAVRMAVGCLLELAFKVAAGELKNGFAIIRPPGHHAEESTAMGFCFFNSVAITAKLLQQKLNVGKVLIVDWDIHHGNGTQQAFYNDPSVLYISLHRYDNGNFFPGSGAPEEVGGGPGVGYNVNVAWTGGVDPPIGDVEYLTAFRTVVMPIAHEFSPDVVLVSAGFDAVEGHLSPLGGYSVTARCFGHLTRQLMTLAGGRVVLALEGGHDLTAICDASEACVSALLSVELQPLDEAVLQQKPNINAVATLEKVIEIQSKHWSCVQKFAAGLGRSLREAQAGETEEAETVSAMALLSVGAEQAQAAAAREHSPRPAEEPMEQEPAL

[5] = molecular target: T1, HDAC6 (Homo sapiens, UniProt Q9UBN7); experiment: HDAC isoform selectivity, HDAC6; assay type: biochemical; details: HDAC subtype panel
T1 sequence (Q9UBN7 1-1215): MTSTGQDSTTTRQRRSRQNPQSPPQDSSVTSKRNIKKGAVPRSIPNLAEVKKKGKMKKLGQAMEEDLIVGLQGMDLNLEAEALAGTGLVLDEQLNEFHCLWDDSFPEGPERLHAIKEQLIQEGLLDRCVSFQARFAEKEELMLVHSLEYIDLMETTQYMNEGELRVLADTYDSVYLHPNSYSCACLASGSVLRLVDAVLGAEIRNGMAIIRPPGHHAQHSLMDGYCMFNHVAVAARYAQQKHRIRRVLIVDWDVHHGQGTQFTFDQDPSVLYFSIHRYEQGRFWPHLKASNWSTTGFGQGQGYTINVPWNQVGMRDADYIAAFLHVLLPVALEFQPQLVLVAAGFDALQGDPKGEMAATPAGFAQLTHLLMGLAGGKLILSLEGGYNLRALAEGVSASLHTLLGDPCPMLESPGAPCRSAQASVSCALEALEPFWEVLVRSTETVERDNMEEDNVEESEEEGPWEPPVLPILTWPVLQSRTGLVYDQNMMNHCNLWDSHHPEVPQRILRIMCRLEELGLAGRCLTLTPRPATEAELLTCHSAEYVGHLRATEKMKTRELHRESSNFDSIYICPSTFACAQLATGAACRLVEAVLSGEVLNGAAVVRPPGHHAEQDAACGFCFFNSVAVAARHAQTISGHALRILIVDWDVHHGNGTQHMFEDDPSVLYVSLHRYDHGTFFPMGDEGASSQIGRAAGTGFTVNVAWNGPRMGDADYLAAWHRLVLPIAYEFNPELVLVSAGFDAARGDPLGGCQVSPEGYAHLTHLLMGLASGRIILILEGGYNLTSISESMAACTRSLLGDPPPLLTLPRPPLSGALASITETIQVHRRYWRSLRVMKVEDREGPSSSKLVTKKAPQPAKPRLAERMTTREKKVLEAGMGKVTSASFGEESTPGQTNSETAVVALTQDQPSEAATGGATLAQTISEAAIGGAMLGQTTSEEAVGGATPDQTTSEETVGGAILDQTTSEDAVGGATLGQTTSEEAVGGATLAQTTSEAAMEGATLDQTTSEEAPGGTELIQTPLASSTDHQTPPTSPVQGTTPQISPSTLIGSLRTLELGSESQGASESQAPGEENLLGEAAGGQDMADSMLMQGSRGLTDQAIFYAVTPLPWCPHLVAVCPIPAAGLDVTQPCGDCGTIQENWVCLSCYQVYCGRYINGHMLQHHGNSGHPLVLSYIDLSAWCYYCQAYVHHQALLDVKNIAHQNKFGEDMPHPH

[6] = molecular target: T2, HDAC7 (Homo sapiens, UniProt Q8WUI4); experiment: HDAC isoform selectivity, HDAC7; assay type: biochemical; details: HDAC subtype panel
T2 sequence (Q8WUI4 1-952): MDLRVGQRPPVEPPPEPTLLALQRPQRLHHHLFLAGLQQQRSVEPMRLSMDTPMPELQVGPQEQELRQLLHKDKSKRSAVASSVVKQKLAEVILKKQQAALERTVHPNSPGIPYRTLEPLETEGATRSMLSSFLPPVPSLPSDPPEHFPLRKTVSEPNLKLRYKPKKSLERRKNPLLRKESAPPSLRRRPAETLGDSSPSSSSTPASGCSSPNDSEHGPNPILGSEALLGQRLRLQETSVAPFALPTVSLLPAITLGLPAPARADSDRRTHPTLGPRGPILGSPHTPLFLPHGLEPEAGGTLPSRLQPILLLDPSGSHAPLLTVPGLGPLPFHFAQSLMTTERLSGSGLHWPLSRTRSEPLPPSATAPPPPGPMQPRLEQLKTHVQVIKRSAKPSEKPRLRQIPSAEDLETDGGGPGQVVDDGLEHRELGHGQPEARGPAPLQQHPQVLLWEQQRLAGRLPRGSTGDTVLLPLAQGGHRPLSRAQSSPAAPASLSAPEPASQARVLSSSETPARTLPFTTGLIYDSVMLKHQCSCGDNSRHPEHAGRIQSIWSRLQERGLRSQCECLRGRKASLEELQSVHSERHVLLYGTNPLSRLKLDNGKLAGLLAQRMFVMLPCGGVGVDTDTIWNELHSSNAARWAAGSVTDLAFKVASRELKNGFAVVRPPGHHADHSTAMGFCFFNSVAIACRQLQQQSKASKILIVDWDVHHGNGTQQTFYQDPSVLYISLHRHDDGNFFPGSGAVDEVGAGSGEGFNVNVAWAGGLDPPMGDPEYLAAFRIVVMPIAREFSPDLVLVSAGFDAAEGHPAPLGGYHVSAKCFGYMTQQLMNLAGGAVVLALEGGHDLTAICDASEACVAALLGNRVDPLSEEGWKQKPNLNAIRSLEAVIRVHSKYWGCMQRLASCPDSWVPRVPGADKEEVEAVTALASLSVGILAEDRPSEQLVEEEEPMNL

[7] = molecular target: T3, GST-tagged MDM2 (Homo sapiens, UniProt Q00987); experiment: HTRF enzyme inhibition assay, MDM2; assay type: biochemical; details: compound at 1 μM
T3 construct: purchased Cisbio Co. Ltd
T3 sequence (Q00987 whole entry): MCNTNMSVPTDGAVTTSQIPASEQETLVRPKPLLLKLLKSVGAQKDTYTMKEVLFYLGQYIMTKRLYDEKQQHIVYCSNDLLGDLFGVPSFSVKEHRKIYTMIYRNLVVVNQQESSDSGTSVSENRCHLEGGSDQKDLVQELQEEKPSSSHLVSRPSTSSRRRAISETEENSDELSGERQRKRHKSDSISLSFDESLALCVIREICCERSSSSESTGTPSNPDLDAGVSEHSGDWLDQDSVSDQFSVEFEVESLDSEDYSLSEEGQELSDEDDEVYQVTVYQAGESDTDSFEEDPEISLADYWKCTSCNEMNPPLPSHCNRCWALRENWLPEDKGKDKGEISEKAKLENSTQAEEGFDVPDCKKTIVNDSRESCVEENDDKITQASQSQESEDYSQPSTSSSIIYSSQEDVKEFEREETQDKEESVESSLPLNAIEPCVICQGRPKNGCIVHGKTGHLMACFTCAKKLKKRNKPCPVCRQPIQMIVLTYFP
Protocol: The enzymatic assay of test compounds is using the HTRF-based method provided by Cisbio Co. Ltd. In brief, the target compounds to be tested were prepared into samples with a concentration of 1 μM, which was added to GST-tagged MDM2 and HDAC1 proteins, respectively, then biotinylated substrate p53 peptide and HTRF detection reagents were added. The data obtained were processed by the ratio method, and the inhibition rates of MDM2 and HDAC1 were calculated. The detailed experimental procedures are according to the manufacturer’s protocols.

[8] = molecular target: HDAC4 (Homo sapiens, UniProt P56524); experiment: HDAC isoform selectivity, HDAC4; assay type: biochemical; details: HDAC subtype panel
Chain of HDAC4 (P56524 whole entry, canonical isoform): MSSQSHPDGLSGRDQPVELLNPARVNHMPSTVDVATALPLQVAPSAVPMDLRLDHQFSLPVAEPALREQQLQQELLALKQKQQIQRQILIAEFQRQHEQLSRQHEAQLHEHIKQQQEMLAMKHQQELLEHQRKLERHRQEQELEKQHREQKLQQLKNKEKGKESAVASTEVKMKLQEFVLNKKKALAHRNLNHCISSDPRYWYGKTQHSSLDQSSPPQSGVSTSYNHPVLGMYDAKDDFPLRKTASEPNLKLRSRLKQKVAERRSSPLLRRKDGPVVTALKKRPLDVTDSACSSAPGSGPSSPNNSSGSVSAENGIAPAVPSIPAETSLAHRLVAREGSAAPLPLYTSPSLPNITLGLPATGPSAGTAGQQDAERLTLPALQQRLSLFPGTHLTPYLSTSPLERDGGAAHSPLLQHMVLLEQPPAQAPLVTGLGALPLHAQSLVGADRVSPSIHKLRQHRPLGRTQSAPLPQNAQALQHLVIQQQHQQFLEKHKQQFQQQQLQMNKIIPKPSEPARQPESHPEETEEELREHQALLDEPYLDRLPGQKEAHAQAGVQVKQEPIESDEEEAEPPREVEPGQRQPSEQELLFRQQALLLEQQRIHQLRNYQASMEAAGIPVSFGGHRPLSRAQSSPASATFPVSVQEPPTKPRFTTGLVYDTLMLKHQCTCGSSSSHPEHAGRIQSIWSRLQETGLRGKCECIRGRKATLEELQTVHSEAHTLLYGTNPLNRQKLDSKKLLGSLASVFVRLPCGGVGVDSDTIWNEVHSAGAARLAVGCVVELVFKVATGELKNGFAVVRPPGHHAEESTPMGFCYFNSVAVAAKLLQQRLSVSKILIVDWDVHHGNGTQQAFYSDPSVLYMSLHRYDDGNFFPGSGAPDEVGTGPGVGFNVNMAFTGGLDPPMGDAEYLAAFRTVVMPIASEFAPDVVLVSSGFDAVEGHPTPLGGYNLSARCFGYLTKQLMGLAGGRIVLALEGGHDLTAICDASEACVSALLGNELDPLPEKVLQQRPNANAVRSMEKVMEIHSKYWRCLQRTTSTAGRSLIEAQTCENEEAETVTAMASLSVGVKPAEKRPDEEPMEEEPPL

O=C(CCCCCCC(=O)N1CCC(C(=O)Nc2ccc([C@@H]3[C@H]4CSCN4[C@]4(C(=O)Nc5cc(Cl)ccc54)[C@H]3C(=O)c3ccccc3)cc2)CC1)NO [compound 11b, N-(4-((3R,6'S,7'R,7a'S)-6'-benzoyl-6-chloro-2-oxo-1',6',7',7a'-tetrahydro-3'H-spiro[indoline-3,5'-pyrrolo[1,2-c]thiazol]-7'-yl)phenyl)-1-(8-(hydroxyamino)-8-oxooctanoyl)piperidine-4-carboxamide]
IC50 [1]: 2540 ± 1070 nM | IC50 [2]: 1370 ± 450 nM | IC50 [3]: 1890 ± 880 nM | IC50 [4]: > 10000 nM | IC50 [5]: 120 ± 26 nM | IC50 [6]: > 10000 nM | inhibition at 1 µM [7]: 68% | IC50 [8]: > 10000 nM
